Assay results as given in article PMC5697763 (Bioconjugate chemistry, 2016).
“And” between values parts separate entries of the source, which are not always exact repeats. Identical values can stand only once. Like-named read-outs stand apart in the source and are kept apart here.

Target: LMCA1 (Listeria monocytogenes serovar 1/2a, UniProt Q8Y8Q5)
Experiment: biochemical
Assay type: biochemical

Chain of LMCA1 (Q8Y8Q5 whole entry): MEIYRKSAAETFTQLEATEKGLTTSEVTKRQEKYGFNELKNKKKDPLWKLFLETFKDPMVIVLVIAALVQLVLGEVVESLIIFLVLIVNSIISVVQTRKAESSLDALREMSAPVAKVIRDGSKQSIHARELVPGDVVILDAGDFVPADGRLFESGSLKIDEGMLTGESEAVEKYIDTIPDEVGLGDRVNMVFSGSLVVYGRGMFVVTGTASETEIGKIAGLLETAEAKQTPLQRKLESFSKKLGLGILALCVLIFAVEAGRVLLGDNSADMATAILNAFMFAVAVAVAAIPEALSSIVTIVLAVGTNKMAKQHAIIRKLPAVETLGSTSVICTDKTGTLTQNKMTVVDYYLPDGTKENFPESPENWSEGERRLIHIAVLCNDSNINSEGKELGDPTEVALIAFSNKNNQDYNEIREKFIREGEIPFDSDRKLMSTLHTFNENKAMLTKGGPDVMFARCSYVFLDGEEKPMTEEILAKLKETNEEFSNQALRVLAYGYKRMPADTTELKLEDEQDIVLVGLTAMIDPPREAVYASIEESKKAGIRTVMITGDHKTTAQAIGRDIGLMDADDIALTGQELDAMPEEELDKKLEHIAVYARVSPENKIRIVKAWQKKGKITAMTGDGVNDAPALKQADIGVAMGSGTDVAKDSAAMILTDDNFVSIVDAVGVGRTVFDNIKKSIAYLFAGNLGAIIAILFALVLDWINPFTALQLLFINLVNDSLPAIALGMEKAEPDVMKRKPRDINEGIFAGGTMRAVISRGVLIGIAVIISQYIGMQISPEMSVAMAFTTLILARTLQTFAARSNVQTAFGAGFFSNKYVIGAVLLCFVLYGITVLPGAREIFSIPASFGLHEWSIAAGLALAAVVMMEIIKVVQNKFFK

Row | Compound | IC50 [µM] | Hill coefficient (absence of NaF (H2O)) | Hill coefficient (constant NaF concentration of 0.5 mM) | Hill coefficient
1 | [Be+2] [BeSO4] | 27 ± 5 | −0.72 ± 0.08 | −1.1 ± 0.1 | 
2 | F [NaF] | 2300 ± 200 |  |  | −2.4 and −2.4 ± 0.4
